# Assay: Mammalian Cytotoxicity Assay (Resazurin)
# Assay type: cell-based
# Settings: African green monkey (COS-1) and Chinese hamster (CHO)
# Description: COS-1 and CHO cell suspensions are prepared, seeded into 96-well tissue culture treated black-walled microtiter plates (density determined by cell line), and incubated overnight at 37° C., in 5% CO2 and approximately 95% humidity. The following day serial dilutions of drug are prepared under sterile conditions and transferred to cell plates. Cell/Drug plates are incubated under the above conditions for 24 hours. Following the incubation period, media/drug is aspirated and 50 μl of Resazurin is added. Plates are then incubated under the above conditions for 2 hours and then in the dark at room temperature for an additional 30 minutes. Fluorescence measurements are taken (excitation 535 nm, emission 590 nm). The IC50 (concentration of drug causing 50% growth inhibition) is then calculated.
row,SMILES,IC50 at 24 h
1,C[C@H]1c2cccc(O)c2C(=O)C2=C(O)[C@]3(O)C(=O)C(C(N)=O)=C(O)[C@@H](N(C)C)[C@@H]3[C@@H](O)[C@@H]21 [doxycycline],> 25 µg/mL
2,CN(C)c1ccc(O)c2c1C[C@H]1C[C@H]3[C@H](N(C)C)C(O)=C(C(N)=O)C(=O)[C@@]3(O)C(O)=C1C2=O [minocycline],> 25 µg/mL

# — patent US6841546B2, “Substituted tetracycline compounds as antifungal agents” (Paratek Pharmaceuticals, Inc., priority 2001, dated 2005)
